We go through 77 molecules from the Kinase Knowledgebase extract (Sharma et al. 2016).

The target of one experiment is EGFR (human) (UniProt P00533).
The target in a further experiment is MAPK14 (human) (UniProt Q16539). The experiment is described as follows: Inhibition of MAPK14 Kinase Activity.
A further experiment addresses CDK2 (human) (UniProt P24941). The experiment is described as follows: Enzyme Assay.

Some results are limits rather than exact numbers.

Chain of MAPK14 (human) (Q16539 whole entry, looked up): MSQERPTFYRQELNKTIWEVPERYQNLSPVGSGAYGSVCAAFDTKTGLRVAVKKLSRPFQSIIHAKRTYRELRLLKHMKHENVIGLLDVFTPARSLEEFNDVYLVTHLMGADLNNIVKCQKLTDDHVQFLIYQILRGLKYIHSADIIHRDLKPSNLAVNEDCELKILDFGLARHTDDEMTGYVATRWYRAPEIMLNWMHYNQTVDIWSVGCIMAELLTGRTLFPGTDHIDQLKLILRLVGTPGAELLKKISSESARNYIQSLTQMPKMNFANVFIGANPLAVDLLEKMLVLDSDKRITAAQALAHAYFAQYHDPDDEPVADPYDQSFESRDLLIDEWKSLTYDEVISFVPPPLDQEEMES
Chain of EGFR (human) (P00533 whole entry, looked up): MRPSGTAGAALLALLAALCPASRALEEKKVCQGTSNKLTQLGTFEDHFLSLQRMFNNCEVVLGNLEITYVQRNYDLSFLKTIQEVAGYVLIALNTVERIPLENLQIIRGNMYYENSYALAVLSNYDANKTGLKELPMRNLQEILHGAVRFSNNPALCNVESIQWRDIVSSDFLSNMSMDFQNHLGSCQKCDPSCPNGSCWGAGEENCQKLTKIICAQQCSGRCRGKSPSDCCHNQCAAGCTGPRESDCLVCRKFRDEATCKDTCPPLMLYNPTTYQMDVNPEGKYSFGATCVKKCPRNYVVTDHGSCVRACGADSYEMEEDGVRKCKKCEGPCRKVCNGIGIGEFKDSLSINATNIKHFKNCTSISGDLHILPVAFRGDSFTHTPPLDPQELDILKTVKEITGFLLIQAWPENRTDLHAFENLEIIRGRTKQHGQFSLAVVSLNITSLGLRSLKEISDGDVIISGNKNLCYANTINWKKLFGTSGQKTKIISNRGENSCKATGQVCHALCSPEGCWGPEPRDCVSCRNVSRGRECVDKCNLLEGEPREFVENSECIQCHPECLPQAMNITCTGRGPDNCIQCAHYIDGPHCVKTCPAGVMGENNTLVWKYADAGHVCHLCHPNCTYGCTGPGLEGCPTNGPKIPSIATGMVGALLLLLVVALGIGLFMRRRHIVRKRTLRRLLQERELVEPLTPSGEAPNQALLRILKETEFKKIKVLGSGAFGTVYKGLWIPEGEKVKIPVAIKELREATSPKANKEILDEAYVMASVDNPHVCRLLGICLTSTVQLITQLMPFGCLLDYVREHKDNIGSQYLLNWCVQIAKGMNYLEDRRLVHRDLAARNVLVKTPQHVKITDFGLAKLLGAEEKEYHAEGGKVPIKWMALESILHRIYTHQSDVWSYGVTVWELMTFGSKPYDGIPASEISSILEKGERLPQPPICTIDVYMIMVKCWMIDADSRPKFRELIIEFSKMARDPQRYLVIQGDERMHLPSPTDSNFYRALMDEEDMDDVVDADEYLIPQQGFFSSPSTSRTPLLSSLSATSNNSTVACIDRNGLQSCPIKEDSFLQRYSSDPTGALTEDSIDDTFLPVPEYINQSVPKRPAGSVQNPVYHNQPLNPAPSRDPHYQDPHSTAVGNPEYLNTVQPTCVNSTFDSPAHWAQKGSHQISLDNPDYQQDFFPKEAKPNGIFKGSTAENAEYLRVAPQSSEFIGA

The IC50 is the concentration at which inhibition is half-maximal. On EGFR (human), `CCCS(=O)(=O)Nc1ccc(F)c(C(=O)c2c[nH]c3ncc(-c4ccc(OC)cc4)cc23)c1F` had an IC50 of at most 10 µM.

Take `COc1ccc(-c2cnc3[nH]cc(C#Cc4ccccc4)c3c2)cc1OC`: the half-inhibitory concentration (IC50) against EGFR (human) is at most 10 µM.

As to `O=C(c1cccc(O)c1)c1c[nH]c2ncc(Nc3ccccc3)cc12`, the 50% inhibitory concentration (IC50) on EGFR (human) and against MAPK14 (human) was at most 10 µM throughout.

On to `O=C(Nc1ccc(F)c(C(O)c2c[nH]c3ncc(-c4cccnc4)cc23)c1F)OCc1ccccc1` (stereo not drawn), for which, at EGFR (human), the IC50 was at most 10 µM.

`CCCS(=O)(=O)Nc1ccc(F)c(C(=O)c2c[nH]c3ncc(OC)cc23)c1F`: the IC50 against CDK2 (human) and at MAPK14 (human) was at most 10 µM each time.

`Nc1cccc(-c2cnc3[nH]cc(C(=O)c4cccc(O)c4)c3c2)c1`: the 50% inhibitory concentration (IC50) on EGFR (human) and on MAPK14 (human) was at most 10 µM throughout.

The molecule `CCCS(=O)(=O)Nc1ccc(F)c(C(OC)c2c[nH]c3ncc(OC)cc23)c1F` (stereo not drawn) registered a concentration for half-maximal inhibition (IC50) on CDK2 (human) of at most 10 µM.

Take `Nc1cccc(-c2cnc3[nH]cc(C(=O)c4cccc(O)c4F)c3c2)c1`: the IC50 on EGFR (human) and against MAPK14 (human) was at most 10 µM in each case.

Molecule `CC(=O)Nc1cccc(-c2cnc3[nH]cc(C(=O)c4cccc(O)c4F)c3c2)c1` yielded an IC50 on MAPK14 (human) of at most 10 µM.

At MAPK14 (human), `Fc1ccc(/C=C/c2ccnc3[nH]ccc23)cc1` yielded a concentration for half-maximal inhibition (IC50) of at most 10 µM.

Regarding `CCCS(=O)(=O)Nc1ccc(F)c(C(=O)c2c[nH]c3ncc(-c4cccnc4)cc23)c1F`, on MAPK14 (human), the 50% inhibitory concentration (IC50) was at most 10 µM.

On MAPK14 (human), `O=C(c1c(F)ccc(NCc2ccccc2)c1F)c1c[nH]c2ncc(-c3cccnc3)cc12` had an IC50 of at most 10 µM.

In turn, `Nc1ccc(F)c(C(=O)c2c[nH]c3ncc(-c4cccnc4)cc23)c1F` displayed a half-maximal inhibitory concentration (IC50) at MAPK14 (human) of at most 10 µM.

`Cc1c(O)cccc1C(=O)c1c[nH]c2ncc(-c3ccccc3)cc12` had an IC50 against MAPK14 (human) of at most 10 µM.

Molecule `Nc1cccc(-c2cnc3[nH]cc(C(=O)c4ccc5nsnc5c4)c3c2)c1` had an IC50 on MAPK14 (human) of at most 10 µM.

Take `O=C(c1cccc(O)c1)c1c[nH]c2ncc(-c3cccs3)cc12`: at MAPK14 (human), the IC50 is at most 10 µM.

At CDK2 (human), `OCCOc1ccc(F)c(Cc2c[nH]c3ncc(-c4cccnc4)cc23)c1F` yielded a half-maximal inhibitory concentration (IC50) of at most 10 µM.

The molecule `Cc1ccc(F)cc1C(=O)c1c[nH]c2ncc(-c3ccsc3)cc12` displayed a half-inhibitory concentration (IC50) at MAPK14 (human) of at most 10 µM.

On MAPK14 (human), `O=C(c1cccc(O)c1F)c1c[nH]c2ncc(-c3cccnc3)cc12` returned a half-maximal inhibitory concentration (IC50) of at most 10 µM.

Take `COc1cc(O)cc(Cc2c[nH]c3ncc(-c4ccsc4)cc23)c1`: the IC50 at MAPK14 (human) is at most 10 µM.

As for `CS(=O)(=O)Nc1ccc(F)c(C(=O)c2c[nH]c3ncc(-c4cccnc4)cc23)c1F`, the IC50 at MAPK14 (human) is at most 10 µM.

On to `O=C(c1c(F)ccc(O)c1F)c1c[nH]c2ncc(-c3cccnc3)cc12`, for which the IC50 against MAPK14 (human) was at most 10 µM.

On MAPK14 (human), `O=C(c1ccccc1F)c1c[nH]c2ncc(-c3ccsc3)cc12` came in with an IC50 of at most 10 µM.

With `CCc1cnc2[nH]cc(C(=O)c3cccc(OC)c3)c2c1`, the IC50 against MAPK14 (human) was at most 10 µM.

As for `Cn1cc(C(F)(F)F)c(-c2ccc(S(=O)(=O)NCc3c[nH]c4ncccc34)s2)n1`, the 50% inhibitory concentration (IC50) on MAPK14 (human) was at most 10 µM.

`Nc1cccc(-c2cnc3[nH]cc(C(=O)c4ccccc4F)c3c2)c1`: at MAPK14 (human), the IC50 was at most 10 µM.

`NC(=O)c1cccc(-c2cnc3[nH]cc(C(=O)c4cc(O)ccc4F)c3c2)c1` showed an IC50 against MAPK14 (human) of at most 10 µM.

`Nc1cccc(-c2cnc3[nH]cc(C(=O)c4ccc(Cl)cc4)c3c2)c1`: on MAPK14 (human), the IC50 was at most 10 µM.

In the case of `Nc1cccc(-c2cnc3[nH]cc(C(=O)c4cc(O)ccc4F)c3c2)c1`, the concentration for half-maximal inhibition (IC50) against EGFR (human) and on MAPK14 (human) was at most 10 µM in each case.

`Cc1c(NS(C)(=O)=O)cccc1C(=O)c1c[nH]c2ncc(-c3ccccc3)cc12` came in with an IC50 against MAPK14 (human) of at most 10 µM.

In turn, `NC(=O)c1ccc(-c2cnc3[nH]cc(C(=O)c4ccccc4F)c3c2)cc1` gave an IC50 at MAPK14 (human) of at most 10 µM.

In turn, `Cc1cccc(N(C)c2ccnc3[nH]ccc23)c1` yielded an IC50 against MAPK14 (human) of at most 10 µM.

In turn, `O=C(c1cccc(NCc2ccccc2)c1)c1c[nH]c2ncccc12` came in with an IC50 against MAPK14 (human) of at most 10 µM.

On to `CCCS(=O)(=O)Nc1ccc(Cl)c(C(=O)c2c[nH]c3ncc(-c4cccnc4)cc23)c1F`, for which, at MAPK14 (human), the half-maximal inhibitory concentration (IC50) was at most 10 µM.

With `O=C(c1cc(O)ccc1F)c1c[nH]c2ncc(-c3cccs3)cc12`, the 50% inhibitory concentration (IC50) on MAPK14 (human) was at most 10 µM.

In the case of `CS(=O)(=O)Nc1ccc(F)c(C(=O)c2c[nH]c3ncc(-c4ccccc4)cc23)c1F`, the IC50 at MAPK14 (human) is at most 10 µM.

Regarding `CS(=O)(=O)Nc1ccc(Cl)c(C(=O)c2c[nH]c3ncc(-c4cccnc4)cc23)c1F`, the half-maximal inhibitory concentration (IC50) at MAPK14 (human) was at most 10 µM.

Take `Clc1ccc(Nc2ccnc3[nH]ccc23)cc1Cl`: at MAPK14 (human), the IC50 was at most 10 µM.

In the case of `Cc1ccc(F)cc1C(=O)c1c[nH]c2ncc(-c3ccc(C(N)=O)cc3)cc12`, the IC50 on MAPK14 (human) is at most 10 µM.

For `O=C(c1ccccc1O)c1c[nH]c2ncc(-c3cccs3)cc12`, on MAPK14 (human), the IC50 was at most 10 µM.

Consider `NC(=O)c1cccc(-c2cnc3[nH]cc(C(=O)c4cccc(O)c4F)c3c2)c1`, for which the IC50 at MAPK14 (human) is at most 10 µM.

In the case of `CS(=O)(=O)Nc1cccc(-c2cnc3[nH]cc(C(=O)c4cc(O)ccc4F)c3c2)c1`, the IC50 against MAPK14 (human) is at most 10 µM.

Turning to `CCCS(=O)(=O)Nc1ccc(Cl)c(C(=O)c2c[nH]c3ncc(-c4ccccc4)cc23)c1F`, the IC50 against MAPK14 (human) was at most 10 µM.

On MAPK14 (human), `CS(=O)(=O)Nc1ccc(F)c(C(=O)c2c[nH]c3ncc(-c4cccc(C(N)=O)c4)cc23)c1F` registered an IC50 of at most 10 µM.

`CCCC(=O)Nc1ccc(F)c(Cc2c[nH]c3ncc(-c4cccnc4)cc23)c1F` showed a half-inhibitory concentration (IC50) against CDK2 (human) of at most 10 µM.

With `Cc1ccc(S(=O)(=O)NCc2c[nH]c3ncccc23)cc1`, the concentration for half-maximal inhibition (IC50) at MAPK14 (human) is at most 10 µM.

`CS(=O)(=O)Nc1ccc(F)c(C(=O)c2c[nH]c3ncc(-c4cccc(S(C)(=O)=O)c4)cc23)c1`: the 50% inhibitory concentration (IC50) against MAPK14 (human) was at most 10 µM.

As to `O=C(c1cccc(O)c1)c1c[nH]c2ncc(-c3ccsc3)cc12`, at MAPK14 (human), the IC50 is at most 10 µM.

In the case of `CS(=O)(=O)Nc1ccc(F)c(C(=O)c2c[nH]c3ncc(-c4ccccc4)cc23)c1`, the IC50 at MAPK14 (human) was at most 10 µM.

Turning to `Cc1ccccc1C(=O)c1c[nH]c2ncc(-c3ccsc3)cc12`, the 50% inhibitory concentration (IC50) against MAPK14 (human) is at most 10 µM.

As to `CS(=O)(=O)c1cccc(-c2cnc3[nH]cc(C(=O)c4cc(O)ccc4F)c3c2)c1`, the IC50 on MAPK14 (human) was at most 10 µM.

Molecule `Cc1nc(-c2ccnc3[nH]ccc23)no1` displayed a concentration for half-maximal inhibition (IC50) at MAPK14 (human) of at most 10 µM.

For the molecule `c1ccc2c(Cc3c[nH]c4ncccc34)cccc2c1`, the half-inhibitory concentration (IC50) against MAPK14 (human) is at most 10 µM.

Turning to `CS(=O)(=O)Nc1cccc(-c2cnc3[nH]cc(C(=O)c4cccc(O)c4F)c3c2)c1`, the IC50 against MAPK14 (human) was at most 10 µM.

Molecule `COc1cccc(CCc2c[nH]c3ncc(-c4ccsc4)cc23)c1` yielded an IC50 at MAPK14 (human) of at most 10 µM.

Take `CS(=O)(=O)c1cccc(-c2cnc3[nH]cc(C(=O)c4cccc(O)c4F)c3c2)c1`: the concentration for half-maximal inhibition (IC50) on MAPK14 (human) is at most 10 µM.

In turn, `O=C(c1cccc(O)c1F)c1c[nH]c2ncc(-c3cncnc3)cc12` showed a concentration for half-maximal inhibition (IC50) at MAPK14 (human) of at most 10 µM.

For `c1cc(Nc2ccc3ncsc3c2)c2cc[nH]c2n1`, at MAPK14 (human), the IC50 is at most 10 µM.

`COc1ccc(F)c(C(=O)c2c[nH]c3ncc(-c4cccnc4)cc23)c1` gave an IC50 on MAPK14 (human) of at most 10 µM.

For `O=C(c1cc(O)ccc1F)c1c[nH]c2ncc(-c3ccccc3)cc12`, at MAPK14 (human), the IC50 was at most 10 µM.

`O=C(c1cc(O)ccc1F)c1c[nH]c2ncc(Br)cc12` displayed an IC50 at MAPK14 (human) of at most 10 µM.

For the molecule `CCCS(=O)(=O)Nc1ccc(F)c(C(=O)c2c[nH]c3ncc(-c4ccccc4)cc23)c1F`, the IC50 on MAPK14 (human) was at most 10 µM.

On MAPK14 (human), `CCCNC(=O)Nc1ccc(F)c(C(=O)c2c[nH]c3ncc(-c4cccnc4)cc23)c1F` gave a 50% inhibitory concentration (IC50) of at most 10 µM.

Take `Brc1ccc(C=Cc2c[nH]c3ncccc23)cc1`: the IC50 at MAPK14 (human) is at most 10 µM.

With `CS(=O)(=O)Nc1cccc(-c2cnc3[nH]cc(C(=O)c4c(F)ccc(NS(C)(=O)=O)c4F)c3c2)c1`, the IC50 against MAPK14 (human) is at most 10 µM.

With `O=C(c1cccc(Cl)c1Cl)c1c[nH]c2ncc(-c3cccnc3)cc12`, the IC50 against MAPK14 (human) was at most 10 µM.

On to `O=C(Nc1ccc(Cc2c[nH]c3ncccc23)cc1)Nc1ccc(Cl)c(C(F)(F)F)c1`, for which the 50% inhibitory concentration (IC50) against MAPK14 (human) was at most 10 µM.

`CCc1cnc2[nH]cc(C(=O)c3cccc(O)c3)c2c1`: the concentration for half-maximal inhibition (IC50) against MAPK14 (human) was at most 10 µM.

Molecule `COc1cccc(C(=O)c2c[nH]c3ncc(-c4cccc(C(N)=O)c4)cc23)c1` yielded a half-inhibitory concentration (IC50) at MAPK14 (human) of at most 10 µM.

For `O=C(c1cccc(O)c1)c1c[nH]c2ncc(Br)cc12`, the IC50 at MAPK14 (human) was at most 10 µM.

As to `CS(=O)(=O)Nc1ccc(Cl)c(C(=O)c2c[nH]c3ncc(Br)cc23)c1F`, at MAPK14 (human), the IC50 is at most 10 µM.

`CS(=O)(=O)Nc1ccc(Cl)c(C(=O)c2c[nH]c3ncc(-c4cccc(S(C)(=O)=O)c4)cc23)c1F` returned a half-maximal inhibitory concentration (IC50) against MAPK14 (human) of at most 10 µM.

With `CC(=O)Nc1cccc(-c2cnc3[nH]cc(C(=O)c4cc(O)ccc4F)c3c2)c1`, the 50% inhibitory concentration (IC50) against EGFR (human) and at MAPK14 (human) was at most 10 µM throughout.

Molecule `CS(=O)(=O)Nc1ccc(F)c(C(=O)c2c[nH]c3ncc(-c4cccc(C(N)=O)c4)cc23)c1` showed an IC50 against MAPK14 (human) of at most 10 µM.

The molecule `O=C(Nc1ccc(F)c(C(=O)c2c[nH]c3ncc(-c4cccnc4)cc23)c1F)OCc1ccccc1` returned a half-maximal inhibitory concentration (IC50) at MAPK14 (human) of at most 10 µM.

On MAPK14 (human), `Cc1c(O)cccc1C(=O)c1c[nH]c2ncc(-c3cccnc3)cc12` came in with an IC50 of at most 10 µM.

In turn, `Cc1c(O)cccc1C(=O)c1c[nH]c2ncc(-c3cccs3)cc12` yielded a 50% inhibitory concentration (IC50) against MAPK14 (human) of at most 10 µM.
